Data: US6911430B2, “Compositions and methods for treating ileus” (VipoGen, LLC, priority 2003, dated 2005)
Ends that are not written are not given here.

Tested on: Male Wistar rats
Assay: Intestinal transit of Evans blue after laparotomy and manipulation of the intestines (postoperative ileus model)
Type: in vivo, rat
Details: single peptide approx. 150 μg per kg i.v. tail vein bolus 1 minute before surgery, skin incision, 20 minute transit period, mean
Protocol: Male Wistar rats are commonly used to study the mechanisms that regulate gastrointestinal function by several laboratories across the United States and the world. This model is well characterized experimentally and has the added advantage of providing results in a short time frame, limiting the animal's distress.
Two hours prior to start of surgery, the required amount of peptide was measured to the nearest […] and placed into 0.5 ml saline. The suspension was then vortexed for 1 minute and then incubated at room temperature for one hour after. The solution was kept refrigerated until 30 minutes before the onset of surgery. The solution was allowed to warm to room temperature for 30 minutes prior to the surgery. Following this warming period, the solution was placed into a 1 cc insulin syringe for tail vein injection 1 minute prior to surgery.
Male Wistar rats (150-250 g) were fasted for 48 hours with free access to water. This fast was necessary to empty the gastrointestinal tract so that the Evans Blue introduced after the surgery could be accurately tracked. The rats were divided into groups in a randomized way. The randomized groups were then given isoflorane anesthesia, followed by clearing of the abdominal area with 10% antibacterial iodine solution and alcohol and shaving prior to surgery. Isoflorane was administered continuously (3-5%) using a vaporizer. […] Diethyl ether can also be used for anesthesia.
Thereafter, the rats received an i.v. injection (VIP receptor antagonists, PACAP receptor antagonists, or combination thereof were delivered in saline) in the tail vein of the appropriate drug or control for its group one minute before the operation. The peptides included VIP (10-28) and PACAP (6-38). The dosage amount of each peptide administered was approximately 150 μg per kg body weight. For the combination treatment a ratio of 1:1 of a PACAP receptor antagonist to VIP receptor antagonists was used, the total peptide amount being approximately 300 μg per kg body weight. The peptide dosages were consistent animal to animal throughout the study and were administered by bolus injections.
All groups underwent a laparotomy consisting of the incision of the abdominal skin, abdominal muscle layers and peritoneum. The laparatomy was followed by evisceration and manipulation of the small intestine and the caecum. In these experiments, the caecum and small intestine were gently pulled out of the abdominal cavity, unfurled like a fan and exposed on two sterile gauzes covering the abdomen of the rat. […]
Twenty minutes later, the rats were euthanized by an overdose pentobarbital (150 mg/kg i.v. tail vein) and the intestinal transit was measured from the pylorus to the most distal point of the migration of Evans blue and expressed in cm.

Row | Substance | % of the intestinal length traversed by Evan's Blue | intestinal motility: distance Evan's Blue traveled through the intestines
1 | PACAP(6-38) (FTDSYSRYRKQMAVKKYLAAVLGKRYKQRVKNK; ends and bridges not checked; listed as Homo sapiens) [PACAP-RA] | 32% | 23 cm
2 | VIP(10-28) (YTRLRKQMAVKKYLNSILN; listed as Homo sapiens) [VIP-RA] | 31% | 26 cm
